{
  "source": "ChEMBL document CHEMBL5113452",
  "about": "“Synthesis and biological evaluation of hybrids from optically active ring-opened 3-N-butylphthalide derivatives and 4-fluro-edaravone as potential anti-acute ischemic stroke agents” (Bioorg Med Chem, 2022)",
  "key": {"[1]": {"assay": "AUC (0-infinity) in Sprague-Dawley rat plasma at 4.53 mg/kg, iv and measured upto 24 hrs in presence of S-NBP by LC-MS/MS analysis", "format": "ADME, organism-based", "parameters": "time < 24 hrs, dose 4.53 mg/kg, route iv"}, "Rattus norvegicus [2]": {"system": "Rattus norvegicus", "assay": "Neuroprotective activity against transient middle cerebral artery occlusion induced cerebral infraction Sprague-Dawley rat model assessed as decrease in brain edema at 4.53 mg/kg, iv and measured after 24 hrs in presence of […]", "format": "functional, organism-based"}, "[3]": {"assay": "Toxicity in transient middle cerebral artery occlusion induced ischemia stroke Sprague-Dawley rat model assessed as change in body weight at 4.53 mg/kg, iv and measured after 24 hrs", "format": "organism-based", "conditions": "in vivo"}, "[4]": {"assay": "Volume of distribution at steady state in Sprague-Dawley rat plasma at 4.53 mg/kg, iv and measured upto 24 hrs by LC-MS/MS analysis", "format": "ADME, organism-based", "conditions": "read-out: Vdss"}, "[5]": {"assay": "Toxicity in transient middle cerebral artery occlusion induced ischemia stroke Sprague-Dawley rat model assessed as change in body weight at 4.10 mg/kg, iv and measured after 24 hrs in presence of NBP", "format": "organism-based", "conditions": "in vivo, 4.1 mg/kg"}, "Rattus norvegicus [6]": {"system": "Rattus norvegicus", "assay": "Neuroprotective activity against transient middle cerebral artery occlusion induced ischemia stroke Sprague-Dawley rat model assessed as increase in neuro-fucntional score at 4.10 mg/kg, iv and measured after 24 hrs in presence of NBP by longa's method", "format": "functional, organism-based", "conditions": "dose 4.1 mg/kg"}, "[7]": {"assay": "MRT in Sprague-Dawley rat plasma at 4.53 mg/kg, iv and measured upto 24 hrs by LC-MS/MS analysis", "format": "ADME, organism-based"}, "[8]": {"assay": "AUC (0-t) in Sprague-Dawley rat plasma at 4.53 mg/kg, iv and measured upto 24 hrs in presence of S-NBP by LC-MS/MS analysis", "format": "ADME, organism-based", "parameters": "time < 24 hrs, dose 4.53 mg/kg, route iv"}, "[9]": {"assay": "AUMC (0-infinity) in Sprague-Dawley rat plasma at 4.53 mg/kg, iv and measured upto 24 hrs by LC-MS/MS analysis", "format": "ADME, organism-based", "conditions": "in vivo"}, "[10]": {"assay": "Toxicity in transient middle cerebral artery occlusion induced ischemia stroke Sprague-Dawley rat model assessed as change in body weight at 4.53 mg/kg, iv and measured after 24 hrs in presence of S-APB", "format": "organism-based", "conditions": "in vivo"}, "[11]": {"assay": "Cmax in Sprague-Dawley rat plasma at 4.53 mg/kg, iv and measured upto 24 hrs in presence of S-NBP by LC-MS/MS analysis", "format": "ADME, organism-based", "parameters": "time < 24 hrs, dose 4.53 mg/kg, route iv"}, "[12]": {"assay": "Half life in Sprague-Dawley rat plasma at 4.53 mg/kg, iv and measured upto 24 hrs by LC-MS/MS analysis", "format": "ADME, organism-based"}, "[13]": {"assay": "Volume of distribution at steady state in Sprague-Dawley rat plasma at 4.53 mg/kg, iv and measured upto 24 hrs in presence of S-NBP by LC-MS/MS analysis", "format": "ADME, organism-based", "conditions": "read-out: Vdss"}, "[14]": {"assay": "Clearance in Sprague-Dawley rat plasma at 4.53 mg/kg, iv and measured upto 24 hrs by LC-MS/MS analysis", "format": "ADME, organism-based"}, "[15]": {"assay": "Half life in Sprague-Dawley rat plasma at 4.53 mg/kg, iv and measured upto 24 hrs in presence of S-NBP by LC-MS/MS analysis", "format": "ADME, organism-based"}, "[16]": {"assay": "Cmax in Sprague-Dawley rat plasma at 4.53 mg/kg, iv and measured upto 24 hrs by LC-MS/MS analysis", "format": "ADME, organism-based", "parameters": "dose 4.53 mg/kg, time < 24 hrs, route iv"}, "Rattus norvegicus [17]": {"system": "Rattus norvegicus", "assay": "Neuroprotective activity against transient middle cerebral artery occlusion induced ischemia stroke Sprague-Dawley rat model assessed as increase in neuro-fucntional score at 4.53 mg/kg, iv and measured after 24 hrs in presence of S-APB by longa's method", "format": "functional, organism-based"}, "[18]": {"assay": "AUMC (0-t) in Sprague-Dawley rat plasma at 4.53 mg/kg, iv and measured upto 24 hrs by LC-MS/MS analysis", "format": "ADME, organism-based", "conditions": "in vivo"}, "[19]": {"assay": "C0 in Sprague-Dawley rat plasma at 4.53 mg/kg, iv and measured upto 24 hrs by LC-MS/MS analysis", "format": "ADME, organism-based"}, "[20]": {"assay": "AUC (0-infinity) in Sprague-Dawley rat plasma at 4.53 mg/kg, iv and measured upto 24 hrs by LC-MS/MS analysis", "format": "ADME, organism-based", "parameters": "time < 24 hrs, dose 4.53 mg/kg, route iv"}, "Rattus norvegicus [21]": {"system": "Rattus norvegicus", "assay": "Neuroprotective activity against transient middle cerebral artery occlusion induced cerebral infraction Sprague-Dawley rat model assessed as decrease in cerebral infraction volume at 4.53 mg/kg, iv and measured after 24 hrs by TTC staining based assay", "format": "functional", "parameters": "scale not given: the % may be the effect or the level left"}, "[22]": {"assay": "Elimination rate constant in Sprague-Dawley rat plasma at 4.53 mg/kg, iv and measured upto 24 hrs by LC-MS/MS analysis", "format": "ADME, organism-based"}, "Rattus norvegicus [23]": {"system": "Rattus norvegicus", "assay": "Neuroprotective activity against transient middle cerebral artery occlusion induced cerebral infraction Sprague-Dawley rat model assessed as decrease in brain edema at 4.10 mg/kg, iv and measured after 24 hrs in presence of NBP", "format": "functional, organism-based", "conditions": "dose 4.1 mg/kg"}, "[24]": {"assay": "MRT in Sprague-Dawley rat plasma at 4.53 mg/kg, iv and measured upto 24 hrs in presence of S-NBP by LC-MS/MS analysis", "format": "ADME, organism-based"}, "[25]": {"assay": "Clearance in Sprague-Dawley rat plasma at 4.53 mg/kg, iv and measured upto 24 hrs in presence of S-NBP by LC-MS/MS analysis", "format": "ADME, organism-based"}, "[26]": {"assay": "Elimination rate constant in Sprague-Dawley rat plasma at 4.53 mg/kg, iv and measured upto 24 hrs in presence of S-NBP by LC-MS/MS analysis", "format": "ADME, organism-based"}, "Rattus norvegicus [27]": {"system": "Rattus norvegicus", "assay": "Neuroprotective activity against transient middle cerebral artery occlusion induced cerebral infraction Sprague-Dawley rat model assessed as decrease in cerebral infraction volume at 4.10 mg/kg, iv and measured after 24 hrs in presence of NBP by TTC staining based assay", "format": "functional", "parameters": "scale not given: the % may be the effect or the level left", "conditions": "dose 4.1 mg/kg"}, "[28]": {"assay": "AUC (0-t) in Sprague-Dawley rat plasma at 4.53 mg/kg, iv and measured upto 24 hrs by LC-MS/MS analysis", "format": "ADME, organism-based", "parameters": "dose 4.53 mg/kg, time < 24 hrs, route iv"}, "Rattus norvegicus [29]": {"system": "Rattus norvegicus", "assay": "Neuroprotective activity against transient middle cerebral artery occlusion induced ischemia stroke Sprague-Dawley rat model assessed as increase in neuro-fucntional score at 4.53 mg/kg, iv and measured after 24 hrs by longa's method", "format": "functional, organism-based"}, "[30]": {"assay": "C0 in Sprague-Dawley rat plasma at 4.53 mg/kg, iv and measured upto 24 hrs in presence of S-NBP by LC-MS/MS analysis", "format": "ADME, organism-based"}, "[31]": {"assay": "AUMC (0-t) in Sprague-Dawley rat plasma at 4.53 mg/kg, iv and measured upto 24 hrs in presence of S-NBP by LC-MS/MS analysis", "format": "ADME, organism-based", "conditions": "in vivo"}, "Rattus norvegicus [32]": {"system": "Rattus norvegicus", "assay": "Neuroprotective activity against transient middle cerebral artery occlusion induced cerebral infraction Sprague-Dawley rat model assessed as decrease in cerebral infraction volume at 4.53 mg/kg, iv and measured after 24 hrs in presence of S-APB by TTC staining based assay", "format": "functional", "parameters": "scale not given: the % may be the effect or the level left"}, "[33]": {"assay": "AUMC (0-infinity) in Sprague-Dawley rat plasma at 4.53 mg/kg, iv and measured upto 24 hrs in presence of S-NBP by LC-MS/MS analysis", "format": "ADME, organism-based", "conditions": "in vivo"}},
  "note": "The source made the active and inactive calls. No cut-off for these calls is given here.",
  "data": [
    {"smiles": "CC1=NN(c2ccc(F)cc2)C(=O)C1", "values": [
      {"measurement": "AUC(0-inf)", "setting": "[1]", "value": 2780, "unit": "ng·h/mL"},
      {"measurement": "Activity", "setting": "Rattus norvegicus [2]", "value": "Active"},
      {"measurement": "Activity", "setting": "[3]", "value": "Non-Toxic"},
      {"measurement": "Vd", "setting": "[4]", "value": 2.39, "unit": "L/kg"},
      {"measurement": "Activity", "setting": "[5]", "value": "Non-Toxic"},
      {"measurement": "Activity", "setting": "Rattus norvegicus [6]", "value": "Active"},
      {"measurement": "MRT", "setting": "[7]", "value": 0.717, "unit": "h"},
      {"measurement": "AUC(0-t) at 24 h", "setting": "[8]", "value": 2750, "unit": "ng·h/mL"},
      {"measurement": "AUMC", "setting": "[9]", "value": 982, "unit": "hr.hr.ng/ml"},
      {"measurement": "Activity", "setting": "[10]", "value": "Non-Toxic"},
      {"measurement": "Cmax", "setting": "[11]", "value": 6100, "unit": "ng/mL"},
      {"measurement": "half-life", "setting": "[12]", "value": 1.14, "unit": "h"},
      {"measurement": "Vd", "setting": "[13]", "value": 3.45, "unit": "L/kg"},
      {"measurement": "clearance", "setting": "[14]", "value": 55.9, "unit": "mL/min/kg"},
      {"measurement": "half-life", "setting": "[15]", "value": 5.16, "unit": "h"},
      {"measurement": "Cmax", "setting": "[16]", "value": 2960, "unit": "ng/mL"},
      {"measurement": "Activity", "setting": "Rattus norvegicus [17]", "value": "Active"},
      {"measurement": "AUMCt", "setting": "[18]", "value": 903, "unit": "hr.hr.ng/ml"},
      {"measurement": "C0 at 24 h", "setting": "[19]", "value": 4910, "unit": "ng/mL"},
      {"measurement": "AUC(0-inf)", "setting": "[20]", "value": 1360, "unit": "ng·h/mL"},
      {"measurement": "Activity", "setting": "Rattus norvegicus [21]", "value": 32.46, "unit": "%"},
      {"measurement": "k el at 24 h", "setting": "[22]", "value": 0.000171, "unit": "s⁻¹"},
      {"measurement": "Activity", "setting": "Rattus norvegicus [23]", "value": "Active"},
      {"measurement": "MRT", "setting": "[24]", "value": 2.1, "unit": "h"},
      {"measurement": "clearance", "setting": "[25]", "value": 27.4, "unit": "mL/min/kg"},
      {"measurement": "k el at 24 h", "setting": "[26]", "value": "3.75e-05", "unit": "s⁻¹"},
      {"measurement": "Activity", "setting": "Rattus norvegicus [27]", "value": 57.7, "unit": "%"},
      {"measurement": "AUC(0-t) at 24 h", "setting": "[28]", "value": 1350, "unit": "ng·h/mL"},
      {"measurement": "Activity", "setting": "Rattus norvegicus [29]", "value": "Active"},
      {"measurement": "C0 at 24 h", "setting": "[30]", "value": 12400, "unit": "ng/mL"},
      {"measurement": "AUMCt", "setting": "[31]", "value": 4690, "unit": "hr.hr.ng/ml"},
      {"measurement": "Activity", "setting": "Rattus norvegicus [32]", "value": 68.37, "unit": "%"},
      {"measurement": "AUMC", "setting": "[33]", "value": 5830, "unit": "hr.hr.ng/ml"}
    ]}
  ]
}
